Each structure is given as a SMILES string.

Experimental findings from ChEMBL document CHEMBL1145877, “5H-8,9-dimethoxy-5-(2-N,N-dimethylaminoethyl)dibenzo[c,h][1,6]naphthyridin-6-ones and related compounds as TOP1-targeting agents: influence of structure on the ternary cleavable complex formation” (Bioorg Med Chem Lett, 2003) are described below.

This assay addresses T1, DNA topoisomerase 1 (Homo sapiens) (UniProt P11387).
T1 sequence (whole entry): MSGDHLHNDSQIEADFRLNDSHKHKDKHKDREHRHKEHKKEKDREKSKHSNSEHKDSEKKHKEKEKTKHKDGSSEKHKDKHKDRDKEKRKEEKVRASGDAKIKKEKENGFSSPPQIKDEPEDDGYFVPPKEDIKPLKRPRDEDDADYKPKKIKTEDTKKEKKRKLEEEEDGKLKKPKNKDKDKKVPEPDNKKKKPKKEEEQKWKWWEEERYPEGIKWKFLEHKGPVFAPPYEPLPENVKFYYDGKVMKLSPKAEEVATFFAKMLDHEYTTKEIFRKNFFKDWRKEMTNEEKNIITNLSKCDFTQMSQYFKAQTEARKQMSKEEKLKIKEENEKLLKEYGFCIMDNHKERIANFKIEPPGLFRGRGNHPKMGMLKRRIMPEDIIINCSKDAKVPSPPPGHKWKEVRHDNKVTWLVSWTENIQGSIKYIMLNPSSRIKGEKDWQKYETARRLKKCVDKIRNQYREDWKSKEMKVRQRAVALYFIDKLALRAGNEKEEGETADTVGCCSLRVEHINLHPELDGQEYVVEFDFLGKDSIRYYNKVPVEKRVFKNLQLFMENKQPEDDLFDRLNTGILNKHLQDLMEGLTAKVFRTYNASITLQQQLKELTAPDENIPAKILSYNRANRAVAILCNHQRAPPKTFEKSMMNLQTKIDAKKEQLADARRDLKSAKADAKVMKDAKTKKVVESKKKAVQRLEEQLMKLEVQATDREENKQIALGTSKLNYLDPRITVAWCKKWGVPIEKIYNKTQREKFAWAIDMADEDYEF
Description: Concentration relative to topotecan for topoisomerase DNA topoisomerase I cleavage.
In turn, `COc1cc2c(=O)n(CCN(C)C)c3c4ccc([N+](=O)[O-])cc4ncc3c2cc1OC` registered an REC of 6. The result for `COc1cc2c(=O)n(CCN(C)C)c3c(cnc4cccc([N+](=O)[O-])c43)c2cc1OC` reads 300; that for `COc1cc2c(=O)n(CCCN(C)C)c3c4cc5c(cc4ncc3c2cc1OC)OCO5`, 1; that for `COc1cc2c(cc1OC)-c1cnc3cc4c(cc3c1N(CCN(C)C)C2)OCO4`, 0.8. The result for `COc1cc2c(=O)n(CCN(C)C)c3c4cccc([N+](=O)[O-])c4ncc3c2cc1OC` reads 9; that for `COc1cc2c(=O)n(CCN(C)C)c3c4cc5c(cc4nnc3c2cc1OC)OCO5`, 0.3; that for `COc1cc2c(=O)n(CCN(C)C)c3c4cc([N+](=O)[O-])ccc4ncc3c2cc1OC`, 2.
